Source: the supplement of paper PMC4862054

Assays:
Conditions in all cases: 72 h
[1] = tested on: BT-549
In short: (§1)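 Per-plate normalisation used 0.1 % DMSO and a positive kill control. Breast cancer cell lines (20 µl suspension) were seeded into 384-well plates containing compound at 5 concentrations in 10-fold steps across a compound-specific 10,000-fold range, incubated for 72 h, and read first for CellTox Green fluorescence (485/520 nm), then for CellTiter-Glo luminescence. EC50 was fitted from the dose-response curves and censored at the top concentration.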

[2] = tested on: CAL-85-1
In short: as §1

[3] = tested on: HCC1143
In short: as §1

[4] = tested on: HCC1599
In short: as §1

[5] = tested on: HDQ-P1
In short: as §1

[6] = tested on: Hs578T
In short: as §1

[7] = tested on: MCF-10A
In short: as §1

[8] = tested on: BT-474
In short: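 Breast cancer cell lines in 20 µl suspension were seeded onto 384-well plates that already held compound dissolved in 5 µl medium and were incubated for 72 h. Viability was measured by adding 2.5 µl CellTiter-Blue for 2 h at 37 °C and reading fluorescence at 560/590 nm. Each plate was normalised to vehicle and a positive kill control and checked by Z'-factor. EC50 was taken from a fitted percent-inhibition dose-response curve, censored at the highest concentration, and rows with a drug sensitivity score of zero were removed.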

[9] = tested on: BT-474; remark: listed apart in the source
In short: as §1

[10] = tested on: CAL-120
In short: as §1

[11] = tested on: CAL-148
In short: as §1

[12] = tested on: DU-4475
In short: as §1

[13] = tested on: HCC1937
In short: as §1

[14] = tested on: MDA-MB-436
In short: as §1

[15] = tested on: MDA-MB-453
In short: as §1

[16] = tested on: MDA-MB-468
In short: as §1

[17] = tested on: MFM-223
In short: as §1

SMILES | EC50, CellTiter-Blue viability [8] | EC50, CellTox Green [1] | EC50, CellTox Green [2] | EC50, CellTox Green [3] | EC50, CellTox Green [4] | EC50, CellTox Green [5] | EC50, CellTox Green [6] | EC50, CellTox Green [7] | EC50, CellTox Green [9] | EC50, CellTox Green [10] | EC50, CellTox Green [11] | EC50, CellTox Green [12] | EC50, CellTox Green [13] | EC50, CellTox Green [14] | EC50, CellTox Green [15] | EC50, CellTox Green [16] | EC50, CellTox Green [17]
CN(c1ccccc1CNc1nc(Nc2ccc3c(c2)CC(=O)N3)ncc1C(F)(F)F)S(C)(=O)=O |  | > 10000 nM | 4490 nM | 72.4 nM | > 10000 nM | 20.9 nM | 1290 nM | 1730 nM |  |  |  |  |  |  |  |  | 
CC(C)C[C@H](NC(=O)[C@H](Cc1ccccc1)NC(=O)c1cnccn1)B(O)O [Bortezomib] | 7.19 nM | 49.3 nM | 5.02 nM | 165 nM |  | 15 nM | 11.7 nM | 210 nM | 32.8 nM | 43.8 nM | 17.2 nM | 229 nM | 11.3 nM | 32.4 nM | 156 nM | 1.94 nM | 13 nM
O=C(c1ccc(OCCN2CCCCC2)cc1)c1c(-c2ccc(O)cc2)sc2cc(O)ccc12 [Raloxifene] |  |  |  |  | > 10000 nM | > 10000 nM |  |  |  |  |  |  |  |  |  |  | 

The next lines start with results.

EC50, CellTiter-Blue viability [8] | SMILES | EC50, CellTox Green [1] | EC50, CellTox Green [2] | EC50, CellTox Green [3] | EC50, CellTox Green [4] | EC50, CellTox Green [5] | EC50, CellTox Green [6] | EC50, CellTox Green [7] | EC50, CellTox Green [9] | EC50, CellTox Green [10] | EC50, CellTox Green [11] | EC50, CellTox Green [12] | EC50, CellTox Green [13] | EC50, CellTox Green [14] | EC50, CellTox Green [15] | EC50, CellTox Green [16] | EC50, CellTox Green [17]
474 nM | C#Cc1cccc(Nc2ncnc3cc(OC)c(OCCCCCCC(=O)NO)cc23)c1 [CUDC-101] |  | 208 nM |  |  |  | 6670 nM | 8030 nM | 2720 nM | 5100 nM | 1700 nM |  |  | 792 nM | 271 nM | 775 nM | 1600 nM
62 nM | COC1=C2C[C@@H](C)C[C@H](OC)[C@H](O)[C@@H](C)/C=C(\C)[C@H](OC(N)=O)[C@@H](OC)/C=C\C=C(/C)C(=O)NC(=CC1=O)C2=O [Geldanamycin] |  | 2570 nM |  |  |  |  | 2370 nM | 6830 nM |  |  | 4720 nM | 2450 nM |  |  | 59.8 nM | 8020 nM
